# Measured values: US8933230B2, “Phosphorus-containing group-substituted quinoline, its preparation process, medical composition containing the compounds and application” (priority 2011, dated 2015)
# Legend:
# Test in all cases: KinomeScan kinase panel
# Type in all cases: binding
# [1] = biological target: T1, BMPR2 (Homo sapiens, UniProt Q13873)
# T1 construct: purchased DiscoveRx Corporation (KinomeScan)
# Description: (§1) In this example, the compound prepared in Example 10, N1-[4-[[7-[[1-(diethoxyphosphorylmethyl)-4-piperidinyl]methoxyl]-6-methoxyl-4-quinolyl]oxyl]-3-fluorophenyl]-N1′-(4-fluorophenyl)cyclopropane-1,1-dicarboxamide is tested for the inhibitory effect in the 442-kinase panel of KinomeScan™ (www.kinomescan.com) from DiscoveRx Corporation (4215 Sorrento Valley Blvd, San Diego, Calif. 92121) at 1000 nM of the compound concentration, the results are shown in the following Table 5:
# (§2) For the detailed information of the screening technique, see Fabian, M. A. et al, Nat., Biotechnol. 2005, 23, 329 and Karaman, M. W. et al, Nat., Biotechnol. 2008, 26, 127. It can be seen from the following representative results that, the compound according to the present invention has significant inhibitory effect on kinases including c-Met, KDR or VEGFR2, RET, PDGFR-β, c-KIT, Flt3, MEK5, DDR1, LOK, CSF1R, EPHA7, EPHA8, EPHB6, MKNK2, BLK, HIPK4, HCK, Flt4 and the mutants thereof
# [2] = biological target: T2, TTK (Homo sapiens, UniProt P33981)
# T2 construct: purchased DiscoveRx Corporation (KinomeScan)
# Description: as §1, §2
# [3] = biological target: T3, ACVR2A (Homo sapiens, UniProt P27037)
# T3 construct: purchased DiscoveRx Corporation (KinomeScan)
# Description: as §1, §2
# [4] = biological target: T4, ICK (Homo sapiens, UniProt Q9UPZ9)
# T4 construct: purchased DiscoveRx Corporation (KinomeScan)
# T4 sequence (Q9UPZ9 whole entry): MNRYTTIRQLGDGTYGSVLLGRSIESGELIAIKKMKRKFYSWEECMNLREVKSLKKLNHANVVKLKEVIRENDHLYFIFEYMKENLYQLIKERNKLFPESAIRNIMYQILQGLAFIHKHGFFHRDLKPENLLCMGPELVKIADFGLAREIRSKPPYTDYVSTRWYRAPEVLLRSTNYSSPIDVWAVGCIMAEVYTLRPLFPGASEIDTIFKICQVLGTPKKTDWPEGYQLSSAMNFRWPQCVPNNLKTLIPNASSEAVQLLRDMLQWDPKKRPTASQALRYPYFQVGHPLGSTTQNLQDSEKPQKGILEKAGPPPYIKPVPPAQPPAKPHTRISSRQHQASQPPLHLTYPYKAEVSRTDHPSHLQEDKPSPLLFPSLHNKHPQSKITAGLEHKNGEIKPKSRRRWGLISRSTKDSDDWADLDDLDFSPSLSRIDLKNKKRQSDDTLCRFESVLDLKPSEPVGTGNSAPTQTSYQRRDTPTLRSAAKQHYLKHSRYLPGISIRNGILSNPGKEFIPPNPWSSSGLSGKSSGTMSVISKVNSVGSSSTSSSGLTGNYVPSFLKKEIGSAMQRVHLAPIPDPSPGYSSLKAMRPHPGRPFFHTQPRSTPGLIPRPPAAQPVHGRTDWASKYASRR
# Description: as §1, §2
# [5] = biological target: T5, AURKC (Homo sapiens, UniProt Q9UQB9)
# T5 construct: purchased DiscoveRx Corporation (KinomeScan)
# Description: as §1, §2
# [6] = biological target: T6, LYN (Homo sapiens, UniProt P07948)
# T6 construct: purchased DiscoveRx Corporation (KinomeScan)
# Description: as §1, §2
# [7] = biological target: T7, IGF1R (Homo sapiens, UniProt P08069)
# T7 construct: purchased DiscoveRx Corporation (KinomeScan)
# Description: as §1, §2
# [8] = biological target: T8, ABL1-phosphorylated (Homo sapiens, UniProt P00519)
# T8 construct: purchased DiscoveRx Corporation (KinomeScan)
# Description: as §1, §2
# [9] = biological target: T9, GSK3B (Homo sapiens, UniProt P49841)
# T9 construct: purchased DiscoveRx Corporation (KinomeScan)
# Description: as §1, §2
# [10] = biological target: T10, CDK5 (Homo sapiens, UniProt Q00535)
# T10 construct: purchased DiscoveRx Corporation (KinomeScan)
# Description: as §1, §2
# [11] = biological target: T11, MINK (Homo sapiens, UniProt Q8N4C8)
# T11 construct: purchased DiscoveRx Corporation (KinomeScan)
# T11 sequence (Q8N4C8 whole entry): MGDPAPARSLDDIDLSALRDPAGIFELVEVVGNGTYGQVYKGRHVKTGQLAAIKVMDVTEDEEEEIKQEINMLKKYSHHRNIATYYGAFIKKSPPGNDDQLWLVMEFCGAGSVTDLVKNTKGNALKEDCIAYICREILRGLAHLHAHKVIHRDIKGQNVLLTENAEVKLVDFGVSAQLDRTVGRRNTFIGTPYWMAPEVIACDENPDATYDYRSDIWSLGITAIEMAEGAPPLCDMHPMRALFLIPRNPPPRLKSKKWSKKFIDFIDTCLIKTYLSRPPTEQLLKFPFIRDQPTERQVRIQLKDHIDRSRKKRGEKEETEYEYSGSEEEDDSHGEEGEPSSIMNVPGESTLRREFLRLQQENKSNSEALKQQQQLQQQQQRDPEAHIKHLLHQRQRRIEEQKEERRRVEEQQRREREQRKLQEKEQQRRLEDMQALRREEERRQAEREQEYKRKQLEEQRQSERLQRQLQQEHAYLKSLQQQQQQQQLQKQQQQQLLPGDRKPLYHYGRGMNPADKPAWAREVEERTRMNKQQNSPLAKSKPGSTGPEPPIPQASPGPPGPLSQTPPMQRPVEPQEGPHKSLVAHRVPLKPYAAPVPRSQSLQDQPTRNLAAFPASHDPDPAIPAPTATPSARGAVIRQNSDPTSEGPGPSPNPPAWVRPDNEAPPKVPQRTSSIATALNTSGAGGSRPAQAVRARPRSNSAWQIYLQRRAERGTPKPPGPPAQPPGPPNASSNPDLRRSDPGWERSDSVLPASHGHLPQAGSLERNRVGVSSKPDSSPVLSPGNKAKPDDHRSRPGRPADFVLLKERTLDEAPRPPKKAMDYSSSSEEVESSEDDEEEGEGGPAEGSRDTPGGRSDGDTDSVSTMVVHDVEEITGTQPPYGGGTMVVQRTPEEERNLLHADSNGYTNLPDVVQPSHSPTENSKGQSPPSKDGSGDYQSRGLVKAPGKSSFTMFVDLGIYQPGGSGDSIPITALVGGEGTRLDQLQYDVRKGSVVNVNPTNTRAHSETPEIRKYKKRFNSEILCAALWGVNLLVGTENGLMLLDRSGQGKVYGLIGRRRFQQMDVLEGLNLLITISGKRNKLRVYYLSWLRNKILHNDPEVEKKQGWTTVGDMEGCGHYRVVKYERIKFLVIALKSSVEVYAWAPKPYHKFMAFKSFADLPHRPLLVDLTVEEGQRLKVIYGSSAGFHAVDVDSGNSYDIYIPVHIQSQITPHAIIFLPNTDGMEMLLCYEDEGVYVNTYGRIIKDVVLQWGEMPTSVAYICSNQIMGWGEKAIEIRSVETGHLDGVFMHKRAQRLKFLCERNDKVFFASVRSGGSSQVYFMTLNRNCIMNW
# Description: as §1, §2
# [12] = biological target: T12, PRKD1 (Homo sapiens, UniProt Q15139)
# T12 construct: purchased DiscoveRx Corporation (KinomeScan)
# Description: as §1, §2
# [13] = biological target: T13, JNK1 (Homo sapiens, UniProt P45983)
# T13 construct: purchased DiscoveRx Corporation (KinomeScan)
# Description: as §1, §2
# [14] = biological target: T14, MEK5 (Homo sapiens, UniProt Q13163)
# T14 construct: purchased DiscoveRx Corporation (KinomeScan)
# Description: as §1, §2
# [15] = biological target: T15, FGFR3(G697C) (Homo sapiens, UniProt P22607, G697C)
# T15 construct: purchased DiscoveRx Corporation (KinomeScan)
# Description: as §1, §2
# [16] = biological target: T16, BRSK1 (Homo sapiens, UniProt Q8TDC3)
# T16 construct: purchased DiscoveRx Corporation (KinomeScan)
# Description: as §1, §2
# [17] = biological target: T17, MAP3K15 (Homo sapiens, UniProt Q6ZN16)
# T17 construct: purchased DiscoveRx Corporation (KinomeScan)
# Description: as §1, §2
# [18] = biological target: T18, P38-beta (Homo sapiens, UniProt Q15759)
# T18 construct: purchased DiscoveRx Corporation (KinomeScan panel)
# Description: as §1, §2
# [19] = biological target: T19, PAK3 (Homo sapiens, UniProt O75914)
# T19 construct: purchased DiscoveRx Corporation (KinomeScan panel)
# Description: as §1, §2
# [20] = biological target: T20, PYK2 (Homo sapiens, UniProt Q14289)
# T20 construct: purchased DiscoveRx Corporation
# Description: as §1, §2
# [21] = biological target: T21, TESK1 (Homo sapiens, UniProt Q15569)
# T21 construct: purchased DiscoveRx Corporation (KinomeScan)
# Description: as §1, §2
# [22] = biological target: T22, JAK3(JH1domain-catalytic) (Homo sapiens, UniProt P52333)
# T22 construct: JAK3(JH1domain-catalytic); purchased DiscoveRx Corporation (KinomeScan)
# T22 sequence (P52333 822-1111 limits assumed): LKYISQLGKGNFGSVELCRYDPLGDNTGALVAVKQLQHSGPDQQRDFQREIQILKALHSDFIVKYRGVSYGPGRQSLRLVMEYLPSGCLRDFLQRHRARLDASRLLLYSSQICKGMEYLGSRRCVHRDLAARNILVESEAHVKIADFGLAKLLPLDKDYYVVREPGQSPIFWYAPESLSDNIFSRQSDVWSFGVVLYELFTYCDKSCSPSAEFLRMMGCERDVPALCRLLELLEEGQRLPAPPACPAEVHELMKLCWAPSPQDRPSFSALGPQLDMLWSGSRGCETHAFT
# Description: as §1, §2
# [23] = biological target: T23, KIT(V559D, V654A) (Homo sapiens, UniProt P10721, V559D/V654A)
# T23 construct: purchased DiscoveRx Corporation (KinomeScan)
# Description: as §1, §2
# [24] = biological target: T24, IRAK4 (Homo sapiens, UniProt Q9NWZ3)
# T24 construct: purchased DiscoveRx Corporation (KinomeScan)
# T24 sequence (Q9NWZ3 whole entry): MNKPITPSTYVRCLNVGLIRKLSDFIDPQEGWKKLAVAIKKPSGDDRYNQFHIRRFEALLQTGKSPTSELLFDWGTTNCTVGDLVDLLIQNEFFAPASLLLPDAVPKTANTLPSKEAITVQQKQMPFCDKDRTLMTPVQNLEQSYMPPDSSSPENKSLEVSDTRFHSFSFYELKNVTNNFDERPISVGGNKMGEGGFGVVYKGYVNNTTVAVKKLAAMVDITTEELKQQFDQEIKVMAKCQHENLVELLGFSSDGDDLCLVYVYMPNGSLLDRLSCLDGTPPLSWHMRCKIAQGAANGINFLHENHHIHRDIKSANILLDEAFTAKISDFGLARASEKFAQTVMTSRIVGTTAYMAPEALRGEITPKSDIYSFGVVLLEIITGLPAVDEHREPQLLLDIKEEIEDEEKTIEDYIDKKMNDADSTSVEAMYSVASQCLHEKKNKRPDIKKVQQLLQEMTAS
# Description: as §1, §2
# [25] = biological target: T25, MST1R (Homo sapiens, UniProt Q04912)
# T25 construct: purchased DiscoveRx Corporation (KinomeScan)
# Description: as §1, §2
# [26] = biological target: T26, ERBB4 (Homo sapiens, UniProt Q15303)
# T26 construct: purchased DiscoveRx Corporation (KinomeScan)
# Description: as §1, §2
# [27] = biological target: T27, MEK6 (Homo sapiens, UniProt P52564)
# T27 construct: purchased DiscoveRx Corporation (KinomeScan)
# T27 sequence (P52564 whole entry): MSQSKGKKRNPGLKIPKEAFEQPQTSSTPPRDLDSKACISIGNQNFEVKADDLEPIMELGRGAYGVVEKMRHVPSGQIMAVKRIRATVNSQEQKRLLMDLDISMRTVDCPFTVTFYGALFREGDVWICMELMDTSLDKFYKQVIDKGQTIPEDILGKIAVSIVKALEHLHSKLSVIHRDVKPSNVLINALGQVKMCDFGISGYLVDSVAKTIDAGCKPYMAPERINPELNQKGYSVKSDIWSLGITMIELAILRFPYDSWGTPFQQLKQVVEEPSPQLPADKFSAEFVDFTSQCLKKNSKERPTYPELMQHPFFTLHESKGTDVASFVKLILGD
# Description: as §1, §2
# [28] = biological target: T28, VRK2 (Homo sapiens, UniProt Q86Y07)
# T28 construct: purchased DiscoveRx Corporation (KinomeScan service)
# Description: as §1, §2
# [29] = biological target: T29, YSK1 (Homo sapiens, UniProt O00506)
# T29 construct: purchased DiscoveRx Corporation (KinomeScan service)
# Description: as §1, §2
# [30] = biological target: T30, YANK1 (Homo sapiens, UniProt Q8WU08)
# T30 construct: purchased DiscoveRx Corporation (KinomeScan service)
# Description: as §1, §2
# [31] = biological target: T31, CDC2L5 (Homo sapiens, UniProt Q14004)
# T31 construct: purchased DiscoveRx Corporation (KinomeScan)
# Description: as §1, §2
# [32] = biological target: T32, TAOK1 (Homo sapiens, UniProt Q7L7X3)
# T32 construct: purchased DiscoveRx Corporation (KinomeScan)
# T32 sequence (Q7L7X3 whole entry): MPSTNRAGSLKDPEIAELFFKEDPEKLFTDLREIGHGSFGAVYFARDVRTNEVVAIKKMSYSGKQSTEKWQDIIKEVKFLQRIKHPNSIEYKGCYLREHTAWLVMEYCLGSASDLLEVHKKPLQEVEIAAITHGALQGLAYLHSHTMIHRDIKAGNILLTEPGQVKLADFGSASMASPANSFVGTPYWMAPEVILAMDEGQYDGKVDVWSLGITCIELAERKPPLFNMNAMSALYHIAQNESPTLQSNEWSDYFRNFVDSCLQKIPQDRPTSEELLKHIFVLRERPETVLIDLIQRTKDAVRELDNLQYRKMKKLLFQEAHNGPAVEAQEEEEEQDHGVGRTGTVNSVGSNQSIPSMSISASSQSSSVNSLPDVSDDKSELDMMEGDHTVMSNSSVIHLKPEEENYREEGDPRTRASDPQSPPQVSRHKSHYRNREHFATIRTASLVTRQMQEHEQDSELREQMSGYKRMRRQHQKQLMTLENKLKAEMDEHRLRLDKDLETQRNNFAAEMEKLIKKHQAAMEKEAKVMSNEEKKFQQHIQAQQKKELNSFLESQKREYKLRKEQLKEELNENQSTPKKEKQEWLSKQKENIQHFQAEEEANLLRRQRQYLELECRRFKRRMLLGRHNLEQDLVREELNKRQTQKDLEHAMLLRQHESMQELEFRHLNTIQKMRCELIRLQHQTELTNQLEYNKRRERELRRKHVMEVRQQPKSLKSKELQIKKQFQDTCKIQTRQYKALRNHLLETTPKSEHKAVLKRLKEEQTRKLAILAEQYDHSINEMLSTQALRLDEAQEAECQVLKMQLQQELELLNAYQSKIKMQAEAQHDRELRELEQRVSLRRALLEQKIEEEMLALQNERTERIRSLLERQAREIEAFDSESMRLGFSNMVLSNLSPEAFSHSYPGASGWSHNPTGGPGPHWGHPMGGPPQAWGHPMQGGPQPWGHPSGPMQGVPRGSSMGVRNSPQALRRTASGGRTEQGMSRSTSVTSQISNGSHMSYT
# Description: as §1, §2
# [33] = biological target: T33, CSNK1G1 (Homo sapiens, UniProt Q9HCP0)
# T33 construct: purchased DiscoveRx Corporation (KinomeScan)
# Description: as §1, §2
# [34] = biological target: T34, ROS1 (Homo sapiens, UniProt P08922)
# T34 construct: purchased DiscoveRx Corporation
# Description: as §1, §2
# [35] = biological target: T35, PRKCQ (Homo sapiens, UniProt Q04759)
# T35 construct: purchased DiscoveRx Corporation (KinomeScan)
# Description: as §1, §2
# [36] = biological target: T36, ABL1(Q252H)-nonphosphorylated (Homo sapiens, UniProt P00519, Q252H)
# T36 construct: purchased DiscoveRx Corporation (KinomeScan)
# Description: as §1, §2
# T1 sequence (Q13873 27-1038): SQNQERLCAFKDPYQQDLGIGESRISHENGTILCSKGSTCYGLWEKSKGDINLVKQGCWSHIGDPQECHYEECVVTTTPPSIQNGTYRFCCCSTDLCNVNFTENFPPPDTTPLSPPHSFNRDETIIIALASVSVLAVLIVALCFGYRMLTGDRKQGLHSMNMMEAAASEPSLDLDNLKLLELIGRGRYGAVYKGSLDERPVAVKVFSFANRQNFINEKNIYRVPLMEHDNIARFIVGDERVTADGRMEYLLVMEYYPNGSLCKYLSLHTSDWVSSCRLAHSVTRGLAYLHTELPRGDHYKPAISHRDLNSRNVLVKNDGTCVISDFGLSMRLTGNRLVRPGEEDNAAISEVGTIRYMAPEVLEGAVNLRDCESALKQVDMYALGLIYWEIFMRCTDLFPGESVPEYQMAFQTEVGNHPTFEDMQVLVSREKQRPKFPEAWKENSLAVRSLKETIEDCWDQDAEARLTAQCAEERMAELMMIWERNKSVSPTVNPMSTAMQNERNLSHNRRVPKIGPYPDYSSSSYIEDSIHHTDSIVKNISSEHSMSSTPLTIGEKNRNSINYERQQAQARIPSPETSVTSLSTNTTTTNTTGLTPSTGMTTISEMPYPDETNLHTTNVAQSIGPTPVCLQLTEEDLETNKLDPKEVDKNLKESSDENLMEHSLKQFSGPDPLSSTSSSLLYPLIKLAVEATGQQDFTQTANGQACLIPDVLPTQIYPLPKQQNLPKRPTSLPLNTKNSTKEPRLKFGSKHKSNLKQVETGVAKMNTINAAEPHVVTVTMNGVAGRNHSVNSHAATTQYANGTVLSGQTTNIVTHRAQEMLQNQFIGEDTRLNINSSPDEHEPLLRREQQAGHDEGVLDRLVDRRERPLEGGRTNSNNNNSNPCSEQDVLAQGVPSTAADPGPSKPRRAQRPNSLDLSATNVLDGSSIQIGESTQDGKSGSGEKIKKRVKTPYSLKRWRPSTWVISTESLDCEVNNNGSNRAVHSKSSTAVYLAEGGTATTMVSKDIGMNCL
smiles,measurement,setting,value
"CCOP(=O)(CN1CCC(COc2cc3nccc(Oc4ccc(NC(=O)C5(C(=O)Nc6ccc(F)cc6)CC5)cc4F)c3cc2OC)CC1)OCC [Example 10, N1-[4-[[7-[[1-(diethoxyphosphorylmethyl)-4-piperidinyl]methoxyl]-6-methoxyl-4-quinolyl]oxyl]-3-fluorophenyl]-N1′-(4-fluorophenyl)cyclopropane-1,1-dicarboxamide]",% Ctrl@1000 nM,[1],100 % Ctrl
same,% Ctrl@1000 nM,[2],84 % Ctrl
same,% Ctrl@1000 nM,[3],100 % Ctrl
same,% Ctrl@1000 nM,[4],95 % Ctrl
same,% Ctrl@1000 nM,[5],66 % Ctrl
same,% Ctrl@1000 nM,[6],18 % Ctrl
same,% Ctrl@1000 nM,[7],94 % Ctrl
same,% Ctrl@1000 nM,[8],33 % Ctrl
same,% Ctrl@1000 nM,[9],100 % Ctrl
same,% Ctrl@1000 nM,[10],100 % Ctrl
same,% Ctrl@1000 nM,[11],100 % Ctrl
same,% Ctrl@1000 nM,[12],100 % Ctrl
same,% Ctrl@1000 nM,[13],80 % Ctrl
same,% Ctrl@1000 nM,[14],0.25 % Ctrl
same,% Ctrl@1000 nM,[15],100 % Ctrl
same,% Ctrl@1000 nM,[16],100 % Ctrl
same,% Ctrl@1000 nM,[17],100 % Ctrl
same,% Ctrl@1000 nM,[18],87 % Ctrl
same,% Ctrl@1000 nM,[19],32 % Ctrl
same,% Ctrl@1000 nM,[20],19 % Ctrl
same,% Ctrl@1000 nM,[21],39 % Ctrl
same,% Ctrl@1000 nM,[22],100 % Ctrl
same,% Ctrl@1000 nM,[23],4.1 % Ctrl
same,% Ctrl@1000 nM,[24],100 % Ctrl
same,% Ctrl@1000 nM,[25],4 % Ctrl
same,% Ctrl@1000 nM,[26],100 % Ctrl
same,% Ctrl@1000 nM,[27],87 % Ctrl
same,% Ctrl@1000 nM,[28],100 % Ctrl
same,% Ctrl@1000 nM,[29],57 % Ctrl
same,% Ctrl@1000 nM,[30],100 % Ctrl
same,% Ctrl@1000 nM,[31],100 % Ctrl
same,% Ctrl@1000 nM,[32],100 % Ctrl
same,% Ctrl@1000 nM,[33],100 % Ctrl
same,% Ctrl@1000 nM,[34],29 % Ctrl
same,% Ctrl@1000 nM,[35],100 % Ctrl
same,% Ctrl@1000 nM,[36],2.4 % Ctrl
